Data from EP4461367A1, “NEW TERNATIN-TYPE CYCLOPEPTIDES FOR USE IN THERAPY” (Centre National de la Recherche Scientifique, priority 2023, dated 2024).
pIC50: −log10 of the molar value. Starred links: 1 amine or outer side, 2 acyl side, 3 side chain; linkers in the order of their positions; H or OH if unused. Non-standard residues stand in square brackets, D forms with d. Residues, ends and D or L forms follow the SMILES beside them. ξ: configuration not given here. X5 = CC(CC(C(=O)[*:2])N(C)[*:1])C(C)OC=O; X2 = CC(COC=O)CC(C(=O)[*:2])N(C)[*:1]; X4 = CC(O)C(C)CC(C(=O)[*:2])N(C)[*:1]; ξNle(4-Me,5-ene) = C=CC(C)CC(N)C(=O)O; X1 = CCC(C)CC(C(=O)[*:2])N(C)[*:1]; X3 = CC(CO)CC(C(=O)[*:2])N(C)[*:1]; ξLeu(3ξ-OH) = CC(C)C(O)C(N)C(=O)O; NMeA = CN[CH](C)C(=O)O

What was measured:
[1] = Cellular cytotoxicity, MTT assay, Huh7; assay type: cell-based; conditions: human, Huh7 cells, 48 h of treatment
Protocol: (§1) Cytotoxicity of the compounds of formula (I) was evaluated on A549, Vero E6 and Huh7 cells by measuring the mitochondrial activity after 48 h of treatment by an MTT assay.

DENV = DENV antiviral assay, infected cells by FACS at 72 h post-infection; assay type: cell-based; conditions: Dengue virus; Vero cells, DENV MOI = 0.1, 72 h post-infection, Figure 9C; read-out: IC50 against DENV
Protocol: At 72 h post-infection, the percentage of DENV-infected cells was measured by FACS assay.

[2] = Cellular cytotoxicity, MTT assay, A549; assay type: cell-based; conditions: human, A549 cells, 48 h of treatment
Protocol: as §1

ZIKV^GFP [3] = experiment: Time of drug-addition assay, ZIKV^GFP in A549 cells; conditions: 10 nM, Figure 11C
Protocol: Time of drug-addition assay aims at characterizing the antiviral action of the compounds of the invention on various stages of the dissecting virus infectious cycle.
Compound C1 (10 nM) or vehicle were used for treatment of A549 cells for viral inactivation assay, concurrently to virus input (Entry), after virus exposure (Replication) with specific washing steps and incubation periods (Figure 11A).
The data represent the means ± SD of four independent experiments performed in triplicate, and are expressed as relative values compared to vehicle-treated cells.

RRV^GFP = experiment: microbe, parasite or virus in culture; conditions: Ross River virus, Vero, 18 h, read-out: IC50 against RRV
Protocol: At 18 h post-infection, the percentage of GFP expressed by the cells is measured by FACS (Flow cytometric analysis of GFP fluorescence). Data represent the means ± SD of four independent experiments performed in triplicate and are expressed as relative values compared to mock-treated control.

SARS-CoV-2 [4] = experiment: Preclinical model in human primary bronchial epithelial cells (Mucilair), viral RNA by qRTPCR; assay type: cell-based; conditions: Severe acute respiratory syndrome coronavirus 2, Primary bronchial epithelial cell, viral RNA at 72 h post-inoculation, Figure 12, read-out: inhibition of the infection by SARS-CoV-2
Protocol: The compound C1 was evaluated on a preclinical model in human primary bronchial epithelial cells (Mucilair) against SARS-CoV-2 (T. Meunier et al., Antimicrob Agents Chemother. 2022 Feb; 66(2): e01581-21). Mucilair cells were inoculated with SARS-CoV-2 in the presence of compound C1 at 0.75, 7.5 or 75 pM for 1 h at the apical side. Inoculum was removed 1 h post-infection. At 72 h post-inoculation, cells were lysed to extract RNA. Viral RNA was quantified by qRTPCR. For RNA quantification, data are expressed relative to the Mock-treated control.

ZIKV^GFP [5] = experiment: ZIKV^GFP antiviral assay, GFP by FACS at 24 h post-infection; assay type: cell-based; conditions: Zika virus
Description: The antiviral activity of the compounds (C1 and C3 to C7) of formula (I) has been evaluated against Zika virus as representative of flaviviruses. Vero, A549 or Huh7.5 cells were infected with ZIKV^GFP (MOI=2) and simultaneously treated with increasing concentrations of the compounds of formula (I) (C1 and C3 to C7) or ternatin (ten-fold serial dilutions of considered compound).

[6] = Cellular cytotoxicity, MTT assay, Vero E6; assay type: cell-based; conditions: african green monkey, Vero E6 cells, 48 h of treatment
Protocol: as §1

SARS-CoV-2 [7] = experiment: SARS-CoV-2 viral progeny, PFU assay (plaque-forming assay) of Huh7 supernatant; assay type: cell-based; conditions: Huh7 cells, MOI=0.01, 24 h post-infection, at 0.6 nM, Figure 10B
Protocol: The compound C1 has been tested on the betacoronavirus SARS-CoV-2. Huh7 cells were infected with SARS-CoV-2 (MOI=0.01) and simultaneously treated with increasing concentrations of the compound of formula (I). At 24 h post-infection, cell supernatant was recovered for viral titration (Figure 10B). Viral progeny was measured by a PFU assay (plaque-forming assay) by quantifying infectious particles in the supernatant (PFU/mL).

HCoV-229E-Luc = experiment: microbe, parasite or virus in culture; assay type: cell-based, human alphacoronavirus HCoV-229-E; conditions: Alphacoronavirus, Huh-7, 24 h, read-out: IC50 (nM) Huh7
ZIKV^GFP [8] = experiment: ZIKV^GFP antiviral assay, GFP by FACS at 48 h post-infection; assay type: cell-based; conditions: Zika virus, Vero, read-out: IC50 against ZIKV
Description: Vero cells were infected with ZIKV^GFP (MOI=2) and simultaneously treated with increasing concentrations of the compound C1 or ternatin (ten-fold serial dilutions of considered compound).

[9] = A549, 24 h, read-out: IC50 (nM) A549
[10] = Huh7.5, 24 h, read-out: IC50 (nM) Huh7.5
[11] = Vero, 24 h, read-out: IC50 (nM) Vero

Protocol for adult zebrafish: (D) Total distance travelled at 1 day post injection. […] After injection, fish were observed during 5 days. Statistical analyses were conducted using unpaired t-test comparisons, n = 5 (n: number of fishes per group).

Row | SMILES | CC50 at 48 h [1] | pIC50 (DENV) | CC50 at 48 h [2] | stage of viral infection targeted (ZIKV^GFP [3]) | pIC50 (RRV^GFP) | inhibition at 75 pM (SARS-CoV-2 [4]) | IC50 (ZIKV^GFP [5]; [9]) | IC50 (ZIKV^GFP [5]; [10]) | IC50 (ZIKV^GFP [5]; [11]) | CC50 at 48 h [6] | reduces SARS-CoV-2 viral progeny production (SARS-CoV-2 [7]) | toxicity in adult zebrafish (adult zebrafish; at the effective antiviral dose, injected 10 ng/µL, observed during 5 days) | fine-tune locomotor activity of zebrafish (adult zebrafish; injected with 10 ng/µL, 1 day post injection, Figure 13) | IC50 (HCoV-229E-Luc) | pIC50 (ZIKV^GFP [8])
1 | C=CC(C)CC1NC(=O)C(CC(C)C)N(C)C(=O)C(C)N(C)C(=O)C(C(C)CC)NC(=O)C(C(O)C(C)C)NC(=O)C(C)N(C)C(=O)C(C)N(C)C1=O (stereo not shown) [Compound C1, comptonellin A] | 4.9 nM | 7.38 | 11.2 nM | targets late stages of viral infection | 7.24 | > 98% | 4 nM | 2 nM | 9 nM | 200 nM | 3 logs | no toxicity | did not impair fine-tune locomotor activity | 5 nM | 7.22
2 | C=CC(C)CC1NC(=O)C(CC(C)CC)N(C)C(=O)C(C)N(C)C(=O)C(C(C)CC)NC(=O)C(C(O)C(C)C)NC(=O)C(C)N(C)C(=O)C(C)N(C)C1=O (stereo not shown) [Compound C3, comptonellin C] (cyclo([X1][ξNle(4-Me,5-ene)][NMeA][NMeA][ξLeu(3ξ-OH)]I[NMeA]); configuration not given here) |  |  |  |  |  |  | 0.5 nM | 0.003 nM | 9 nM | 412 nM |  |  |  | 2.4 nM | 
3 | C=CC(C)CC1NC(=O)C(CC(C)CO)N(C)C(=O)C(C)N(C)C(=O)C(C(C)CC)NC(=O)C(C(O)C(C)C)NC(=O)C(C)N(C)C(=O)C(C)N(C)C1=O (stereo not shown) [Compound C4, comptonellin D] (cyclo([X3][ξNle(4-Me,5-ene)][NMeA][NMeA][ξLeu(3ξ-OH)]I[NMeA]); configuration not given here) | 9.35 nM |  | 52.8 nM |  |  |  | 26 nM | 12 nM | 163 nM | 3760 nM |  |  |  | 96.8 nM | 
4 | C=CC(C)CC1NC(=O)C(CC(C)C(C)O)N(C)C(=O)C(C)N(C)C(=O)C(C(C)CC)NC(=O)C(C(O)C(C)C)NC(=O)C(C)N(C)C(=O)C(C)N(C)C1=O (stereo not shown) [Compound C5, comptonellin E] (cyclo([X4][ξNle(4-Me,5-ene)][NMeA][NMeA][ξLeu(3ξ-OH)]I[NMeA]); configuration not given here) | 31.9 nM |  | 99.8 nM |  |  |  | 40 nM | 11 nM | 244 nM | 4810 nM |  |  |  | 98.5 nM | 
5 | C=CC(C)CC1NC(=O)C(CC(C)COC=O)N(C)C(=O)C(C)N(C)C(=O)C(C(C)CC)NC(=O)C(C(O)C(C)C)NC(=O)C(C)N(C)C(=O)C(C)N(C)C1=O (stereo not shown) [Compound C6, comptonellin F] (cyclo([X2][ξNle(4-Me,5-ene)][NMeA][NMeA][ξLeu(3ξ-OH)]I[NMeA]); configuration not given here) | 22.1 nM |  | 41 nM |  |  |  | 13 nM | 9 nM | 115 nM | 3530 nM |  |  |  | 36.8 nM | 
6 | C=CC(C)CC1NC(=O)C(CC(C)C(C)OC=O)N(C)C(=O)C(C)N(C)C(=O)C(C(C)CC)NC(=O)C(C(O)C(C)C)NC(=O)C(C)N(C)C(=O)C(C)N(C)C1=O (stereo not shown) [Compound C7, comptonellin G] (cyclo([X5][ξNle(4-Me,5-ene)][NMeA][NMeA][ξLeu(3ξ-OH)]I[NMeA]); configuration not given here) | 93.9 nM |  | 80.6 nM |  |  |  | 46 nM | 16 nM | 176 nM | 379 nM |  |  |  | 15 nM | 
7 | COc1cc(-c2oc3c(OC)c(OC)cc(O)c3c(=O)c2OC)ccc1O [Ternatin, ternatin] |  | 6.31 |  |  | 6.01 |  | 92 nM | 23 nM | 584 nM |  |  |  |  | 157 nM | 6.07
